Assay results taken from article PMC6309140, “Synthesis and Evaluation of a New Type of Small Molecule Epigenetic Modulator Containing Imidazo[1,2-b][1,2,4]triazole Motif” (Frontiers in Chemistry, 2018).

Tests used:
[1] = system: EGFP reporter gene silenced by DNA methylation (B2-17 cells); experiment: Compound effective assay: derepression of EGFP reporter in B2-17 reporter cells (image-based, titration); assay type: cell-based; conditions: for Emax: 72 h, read-out: Maximal RGFP% (maximal percentage of EGFP+ cells in the dose-response curve); for Emax / EC50: B2-17 cells, 72 h treatment; for EC50: dose-response of EGFP+ cells, read-out: EC50 (relative half maximal effect concentration)
Source text: (§1) To identify novel small molecules targeting gene repression, we devised an image-based high-throughput screening system using the engineered HEK 293 F cell (termed as B2-17 cells) as report cell line. A chemical library containing 308,251 small molecules was screened in this system. Purposed for unbiased compound screening, this library had been used in a variety of studies (Sun et al., [2012]; Wang et al., [2013]; Dong et al., [2015]; Li et al., [2016]). Hundred and fifty eight compounds which reactivated reporter genes in more than half of cells were selected as hits. Next, we performed titration experiments for all these hits in the B2-17 cell line. The efficacy of each compound was evaluated by its maximal percentage of EGFP^+ cells in the dose-response curve (maximal RGFP) and relative half maximal effect concentration (EC50). The toxicity of the hits was also tested in parallel, measured by number of viable cells in each treatment. The assay is based on quantitative analysis of ATP, an indicator of metabolically active cells. For each compound, we calculated the relative half maximal growth inhibitory concentration (IC50), based on the abovementioned assay.
Procedure for cell culture and establishment of the reporter cell line were reported in our previously published paper (Li et al., [2018]).
Before plating cells, 384-well plates (ViewPlate, PerkinElmer) were coated with PDL (poly-D-lysine, Sigma). For each well, 1,300 B2-17 cells were plated by using a Matrix Wellmate microplate dispenser (Thermo Scientific). Then, 0.25 μL of compound was added to each well by using a versatile pipetting robot, the Biomek FX workstation (Beckman Coulter), to give a final compound concentration of 5 μM. After treatment for 72 h, the cell nuclei were stained by Hoechst 33342 (Sigma) before imaging.
The cells were imaged with Opera LX (PerkinElmer, three views per well by using 10 x (air) objective lens). Images were analyzed with the Columbus system, the mean percentage of EGFP+ cells (RGFP) was obtained to extrapolate the number of EGFP expressing cells and Hoechst-stained nuclei.
For the titration assay, the positive compounds were diluted in DMSO at concentrations ranging from 0.625 to 4 mM. Then, the B2-17 cells were treated by gradient compound and imaged as described before.
For each compound, a dose-response series was generated by using Origin 6.0 Pro software. The dot plot was fit by a DoseResp curve and then the EC50 was calculated.

HEK 293 F cells = experiment: Viability assays (CellTiter-Glo, ATP); assay type: cell-based; conditions: HEK293F, 72 h; viable cells by ATP quantitation, 3 days incubation; Figure 2 says B2-17 cells, method says HEK 293 F cells; read-out: IC50 (relative half maximal growth inhibitory concentration)
Source text: as §1
HEK 293 F cells were plated in 384-well, flat-bottom, tissue culture dishes (Corning) and treated with compounds, incubated 3 days, and assayed for viability using the CellTiter-Glo Luminescent Cell Viability Assay (Promega) according to the manufacturer's protocol. The […] with an EnSight plate reader (Perkin Elmer). Data were normalized to the untreated control (100% viability). Each treatment was tested in two independent assays, each containing 3 replicates. The titration-viability curves of each compound were also generated by using Origin 6.0 Pro software.

p38 MAPK pathway = system: p38 MAPK pathway; parameters: method as in Li et al., 2018; conditions: multiple cell types; ref Li et al., 2018; cited from earlier work
[2] = Water solubility (qualitative remark); assay type: physicochemical; conditions: 14b vs. 14a

Structure (SMILES)	Emax [1]	EC50 [1]	IC50 (HEK 293 F cells)	activation of the p38 MAPK pathway (p38 MAPK pathway)	activity of derepressing the EGFP reporter gene silenced by DNA methylation (in words) ([1]; compared with hit compound LX-3)	water solubility (in words) [2]
O=C(Cn1c2ccccc2n2nc(-c3cccs3)nc12)c1ccc(Br)cc1 [LX-3, 1-(4-bromophenyl)-2-(2-(thiophen-2-yl)-4H-benzo[4,5]imidazo[1,2-b][1,2,4]triazol-4-yl)ethan-1-one]	79%	2.8 µM	5.1 µM	selectively activate the p38 MAPK pathway		
O=C(Cn1c2ccccc2c(=O)c2ccccc21)N/N=C/c1ccc(Sc2nc3ccccc3s2)c([N+](=O)[O-])c1 [LX-4]	68%	2 µM	4.2 µM	selectively activate the p38 MAPK pathway		
Cc1cc2c(cc1C)n1nc(-c3nccs3)nc1n2CC(=O)c1ccc(Br)cc1 [14b, 1-(4-bromophenyl)-2-(6,7-dimethyl-2-(thiazol-2-yl)-4H-benzo[4,5]imidazo[1,2-b][1,2,4]triazol-4-yl)ethan-1-one]	58%	3.4 µM	2.1 µM		comparable with the hit compound LX-3	significantly increased
